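Tested at 5 concentrations; 48 h exposure; 96-well plates; endpoints linearly interpolated, else capped at highest concentration. At the GI50, growth is halved.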 Calls of active or inactive are those of the source. Rule as the data show it: active = GI50 up to about 1.1 µM and inactive = higher.
Legend:
Test in all cases: DTP human tumour cell line panel, 48 h
786-0 = test system: 786-0
A549 = test system: A549
ACHN = test system: ACHN
BT-549 = test system: BT-549
CAKI-1 = test system: CAKI-1
CCRF-CEM = test system: CCRF-CEM
COLO 205 = test system: COLO 205
DU-145 = test system: DU-145
EKVX = test system: EKVX
HCC 2998 = test system: HCC 2998
HCT-116 = test system: HCT-116
HCT-15 = test system: HCT-15
HL-60 = test system: HL-60
HOP-62 = test system: HOP-62
HOP-92 = test system: HOP-92
HT-29 = test system: HT-29
Hs-578T = test system: Hs-578T
IGROV-1 = test system: IGROV-1
K562 = test system: K562
KM12 = test system: KM12
LOX IMVI = test system: LOX IMVI
M14 = test system: M14
MCF7 = test system: MCF7
MDA-MB-231 = test system: MDA-MB-231
MDA-MB-435 = test system: MDA-MB-435
MDA-N = test system: MDA-N
MOLT-4 = test system: MOLT-4
Malme-3M = test system: Malme-3M
NCI-H226 = test system: NCI-H226
NCI-H23 = test system: NCI-H23
NCI-H460 = test system: NCI-H460
NCI/ADR-RES = test system: NCI/ADR-RES
OVCAR-3 = test system: OVCAR-3
OVCAR-4 = test system: OVCAR-4
OVCAR-5 = test system: OVCAR-5
OVCAR-8 = test system: OVCAR-8
PC-3 = test system: PC-3
RPMI-8226 = test system: RPMI-8226
RXF 393 = test system: RXF 393
SF-268 = test system: SF-268
SF-295 = test system: SF-295
SF-539 = test system: SF-539
SK-MEL-28 = test system: SK-MEL-28
SK-MEL-2 = test system: SK-MEL-2
SK-MEL-5 = test system: SK-MEL-5
SK-OV-3 = test system: SK-OV-3
SN12C = test system: SN12C
SNB-19 = test system: SNB-19
SNB-75 = test system: SNB-75
SR = test system: SR
SW-620 = test system: SW-620
T47D = test system: T47D
TK-10 = test system: TK-10
U-251 = test system: U-251
UACC-257 = test system: UACC-257
UACC-62 = test system: UACC-62
UO-31 = test system: UO-31
A498 = test system: A498

## CC(C)NC(=O)OCCN=c1c2ccccc2ccc2ccccc12
786-0
  GI50: 59.4 µM (inactive)
A549
  GI50: 29.3 µM (inactive)
ACHN
  GI50: 43.1 µM (inactive)
BT-549
  GI50: 49.4 µM (inactive)
CAKI-1
  GI50: 35.9 µM (inactive)
CCRF-CEM
  GI50: 21 µM (inactive)
COLO 205
  GI50: 27.7 µM (inactive)
DU-145
  GI50: 56.2 µM (inactive)
EKVX
  GI50: 35 µM (inactive)
HCC 2998
  GI50: 40 µM (inactive)
HCT-116
  GI50: 34.7 µM (inactive)
HCT-15
  GI50: 38.7 µM
HL-60
  GI50: 15.8 µM (inactive)
HOP-62
  GI50: 41.9 µM (inactive)
HOP-92
  GI50: 27.2 µM (inactive)
HT-29
  GI50: 39.2 µM (inactive)
Hs-578T
  GI50: 35.2 µM (inactive)
IGROV-1
  GI50: 47.5 µM (inactive)
K562
  GI50: 25 µM (inactive)
KM12
  GI50: 44.7 µM (inactive)
LOX IMVI
  GI50: 44.9 µM (inactive)
M14
  GI50: 36 µM (inactive)
MCF7
  GI50: 44.9 µM (inactive)
MDA-MB-231
  GI50: 32.1 µM (inactive)
MDA-MB-435
  GI50: 46.6 µM (inactive)
MDA-N
  GI50: 40.6 µM (inactive)
MOLT-4
  GI50: 24.4 µM (inactive)
Malme-3M
  GI50: 46.1 µM (inactive)
NCI-H226
  GI50: 30.4 µM (inactive)
NCI-H23
  GI50: > 100 µM (inactive)
NCI-H460
  GI50: 45.6 µM (inactive)
NCI/ADR-RES
  GI50: 32.6 µM (inactive)
OVCAR-3
  GI50: 34.4 µM (inactive)
OVCAR-4
  GI50: 33.9 µM (inactive)
OVCAR-5
  GI50: 88.9 µM (inactive)
OVCAR-8
  GI50: 57.1 µM (inactive)
PC-3
  GI50: 23.8 µM (inactive)
RPMI-8226
  GI50: > 10 µM (inactive)
RXF 393
  GI50: 36.8 µM (inactive)
SF-268
  GI50: 63.7 µM (inactive)
SF-295
  GI50: 38.2 µM (inactive)
SF-539
  GI50: 53.2 µM (inactive)
SK-MEL-28
  GI50: 32.4 µM (inactive)
SK-MEL-2
  GI50: 23.7 µM (inactive)
SK-MEL-5
  GI50: 17.6 µM (inactive)
SK-OV-3
  GI50: 47.6 µM (inactive)
SN12C
  GI50: 34.8 µM (inactive)
SNB-19
  GI50: 24.4 µM (inactive)
SNB-75
  GI50: 62.5 µM (inactive)
SR
  GI50: 24.8 µM (inactive)
SW-620
  GI50: 64.1 µM (inactive)
T47D
  GI50: 15.6 µM (inactive)
TK-10
  GI50: 50.7 µM (inactive)
U-251
  GI50: 38.3 µM (inactive)
UACC-257
  GI50: 42.6 µM (inactive)
UACC-62
  GI50: 31.4 µM (inactive)
UO-31
  GI50: 23.5 µM (inactive)

## COc1ccc(OC)c(C23CCCC(C2)N(C)CC3)c1 (stereo not drawn)
786-0
  GI50: 25.3 µM (inactive)
A498
  GI50: 32.3 µM (inactive)
A549
  GI50: 22.3 µM (inactive)
ACHN
  GI50: 26.9 µM (inactive)
BT-549
  GI50: 30.8 µM (inactive)
CAKI-1
  GI50: 46.5 µM (inactive)
DU-145
  GI50: 32.7 µM (inactive)
EKVX
  GI50: 43.6 µM (inactive)
HCT-116
  GI50: 13.8 µM (inactive)
HCT-15
  GI50: 34 µM
HT-29
  GI50: 14.9 µM (inactive)
Hs-578T
  GI50: 38.1 µM (inactive)
K562
  GI50: 17 µM (inactive)
KM12
  GI50: 18.4 µM (inactive)
M14
  GI50: 17.6 µM (inactive)
MCF7
  GI50: 16.6 µM (inactive)
MDA-MB-231
  GI50: 21.3 µM (inactive)
MDA-MB-435
  GI50: 20.1 µM (inactive)
MDA-N
  GI50: 27.4 µM (inactive)
MOLT-4
  GI50: 32.1 µM (inactive)
NCI-H23
  GI50: 32.1 µM (inactive)
NCI-H460
  GI50: 19.2 µM (inactive)
NCI/ADR-RES
  GI50: 60.3 µM (inactive)
OVCAR-3
  GI50: 19.6 µM (inactive)
OVCAR-4
  GI50: 24.9 µM (inactive)
OVCAR-5
  GI50: 40 µM (inactive)
PC-3
  GI50: 16.4 µM (inactive)
RPMI-8226
  GI50: 12.7 µM (inactive)
RXF 393
  GI50: 29.9 µM (inactive)
SF-268
  GI50: 44.6 µM (inactive)
SF-295
  GI50: 38.5 µM (inactive)
SK-MEL-2
  GI50: 21.8 µM (inactive)
SN12C
  GI50: 28.2 µM (inactive)
SNB-19
  GI50: 6.75 µM (inactive)
SR
  GI50: 18.4 µM (inactive)
T47D
  GI50: 33.3 µM (inactive)
TK-10
  GI50: 40.3 µM (inactive)
U-251
  GI50: 11.7 µM (inactive)
UACC-257
  GI50: 36.6 µM (inactive)
UACC-62
  GI50: 20.9 µM (inactive)
UO-31
  GI50: 28.6 µM (inactive)

## CCOC(=O)c1c2ccccc2n2c(=O)n(C)nnc12
786-0
  GI50: 89.3 µM (inactive)
A498
  GI50: > 100 µM (inactive)
A549
  GI50: > 100 µM (inactive)
ACHN
  GI50: > 84.1 µM (inactive)
BT-549
  GI50: > 100 µM (inactive)
CAKI-1
  GI50: > 100 µM (inactive)
CCRF-CEM
  GI50: > 100 µM (inactive)
COLO 205
  GI50: > 100 µM (inactive)
DU-145
  GI50: > 100 µM (inactive)
EKVX
  GI50: 99.8 µM (inactive)
HCC 2998
  GI50: > 100 µM (inactive)
HCT-116
  GI50: > 100 µM (inactive)
HCT-15
  GI50: > 100 µM
HL-60
  GI50: 1.53 µM (inactive)
HOP-62
  GI50: 12.4 µM (inactive)
HOP-92
  GI50: > 100 µM (inactive)
Hs-578T
  GI50: > 100 µM (inactive)
IGROV-1
  GI50: > 100 µM (inactive)
K562
  GI50: > 100 µM (inactive)
KM12
  GI50: > 100 µM (inactive)
LOX IMVI
  GI50: > 100 µM (inactive)
M14
  GI50: > 100 µM (inactive)
MCF7
  GI50: > 100 µM (inactive)
MDA-MB-231
  GI50: > 100 µM (inactive)
MDA-MB-435
  GI50: > 53.7 µM (inactive)
MDA-N
  GI50: > 100 µM (inactive)
Malme-3M
  GI50: > 100 µM (inactive)
NCI-H226
  GI50: > 100 µM (inactive)
NCI-H23
  GI50: > 100 µM (inactive)
NCI-H460
  GI50: > 100 µM (inactive)
NCI/ADR-RES
  GI50: > 100 µM (inactive)
OVCAR-3
  GI50: > 27.9 µM (inactive)
OVCAR-4
  GI50: > 100 µM (inactive)
OVCAR-5
  GI50: > 100 µM (inactive)
OVCAR-8
  GI50: > 100 µM (inactive)
PC-3
  GI50: > 100 µM (inactive)
RPMI-8226
  GI50: > 100 µM (inactive)
RXF 393
  GI50: > 47.4 µM (inactive)
SF-268
  GI50: 58.9 µM (inactive)
SF-295
  GI50: 40.1 µM (inactive)
SF-539
  GI50: > 56.2 µM (inactive)
SK-MEL-28
  GI50: > 100 µM (inactive)
SK-MEL-2
  GI50: > 100 µM (inactive)
SK-MEL-5
  GI50: > 100 µM (inactive)
SK-OV-3
  GI50: > 80.5 µM (inactive)
SN12C
  GI50: > 100 µM (inactive)
SNB-19
  GI50: > 100 µM (inactive)
SNB-75
  GI50: 46.3 µM (inactive)
SW-620
  GI50: > 100 µM (inactive)
T47D
  GI50: > 100 µM (inactive)
TK-10
  GI50: > 75.5 µM (inactive)
U-251
  GI50: > 89.1 µM (inactive)
UACC-257
  GI50: > 100 µM (inactive)
UACC-62
  GI50: > 100 µM (inactive)
UO-31
  GI50: > 100 µM (inactive)

Reference: ChEMBL document CHEMBL1201862, “PubChem BioAssay data set” (2004)
